In patent publication US7345082B2, “Phosphinic acids” (Hoffmann-La Roche Inc., priority 2003, dated 2008):

Biological target: T1, purified BACE protein (β-secretase) (Homo sapiens, UniProt P56817)
T1 construct: made in house
Assay: Competitive Radioligand Binding Assay (RLBA)
Conditions: β-secretase inhibition; displacement of tritiated Compound A from BACE-coated plates, pH 4.1; read-out: IC50 in vitro
Protocol: Competitive Radioligand Binding Assay (RLBA)
96 well microplates (Optiplate Packard) are coated with purified BACE protein (see e.g. GB 2,385,124: Examples 1 and 2) using a concentration of 1 μg/ml in 30 mM sodium citrate buffer adjusted to pH 5.5. The coating is achieved by incubation of 100 μl/well for 1-3 days at 4° C. The plate is then washed with 2×300 μl/well of 10 mM citrate pH 4.1. To each well 100 μl binding buffer (30 mM citrate, 100 mM NaCl, 0.1% BSA, pH 4.1) is dispensed. The test compound is added in 5 μl from a DMSO stock solution or appropriate dilutions. To this the tracer (tritiated Compound A, see e.g. GB 2,385,124: Example 4) is added in 10 µl/well from a 10 μCi/ml stock solution in binding buffer. After incubation for 1.5-2 hours in a humid chamber at ambient temperature the plate is washed with 2×300 μl/well water and flipped on a dry towel. Following the addition of 50 μl/well Micro-Scint20 (Packard) the plate is sealed and vibrated for 5 seconds. The bound radioactivity is counted on a Topcount (Packard). Total binding is typically between 2000 and 10000 cpm/well depending mainly on the purity and concentration of the BACE protein. Non-specific binding as assessed by competition with >1 μM peptidic inhibitor (Bachem # H-4848) is typically between 30 and 300 cpm/well. The IC-50 values are calculated by Microsoft Excel FIT.

T1 sequence (P56817 46-501): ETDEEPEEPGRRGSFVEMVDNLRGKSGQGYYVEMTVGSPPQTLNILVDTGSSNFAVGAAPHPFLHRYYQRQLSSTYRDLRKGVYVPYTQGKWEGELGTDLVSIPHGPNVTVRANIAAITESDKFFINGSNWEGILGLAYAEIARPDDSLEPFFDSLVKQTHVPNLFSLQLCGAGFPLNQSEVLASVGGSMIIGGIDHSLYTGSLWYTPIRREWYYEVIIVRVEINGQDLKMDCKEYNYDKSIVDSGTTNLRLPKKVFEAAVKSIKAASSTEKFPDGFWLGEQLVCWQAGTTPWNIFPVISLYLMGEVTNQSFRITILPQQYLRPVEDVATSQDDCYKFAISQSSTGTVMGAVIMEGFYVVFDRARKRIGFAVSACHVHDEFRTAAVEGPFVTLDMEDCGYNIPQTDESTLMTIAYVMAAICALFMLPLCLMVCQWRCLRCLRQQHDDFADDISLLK

IC50 [nM] | Compound
40 | CCCN(CCC)C(=O)c1cccc(C(=O)N[C@@H](Cc2ccccc2)P(=O)(O)CC(C)C(=O)NCCC(C)C)c1 (mixture of isomers) [Compound I-37, [(R)-1-(3-dipropylcarbamoyl-benzoylamino)-2-phenyl-ethyl]-[2-(3-methyl-butylcarbamoyl)-propyl]-phosphinic acid]
20 | CCCN(CCC)C(=O)c1cccc(C(=O)N[C@@H](Cc2ccccc2)P(=O)(O)CC(C)C(=O)NC2CCCCC2)c1 (stereo partly drawn) [Compound I-42, (2-cyclohexylcarbamoyl-propyl)-[(R)-1-(3-dipropylcarbamoyl-benzoylamino)-2-phenyl-ethyl]-phosphinic acid]
10 | CCCN(CCC)C(=O)c1cccc(C(=O)N[C@@H](Cc2ccccc2)P(=O)(O)CC(C)C(=O)Nc2ccccc2)c1 (mixture of isomers) [Compound I-18, [(R)-1-(3-dipropylcarbamoyl-benzoylamino)-2-phenyl-ethyl]-(2-phenylcarbamoyl-propyl)-phosphinic acid]
50 | CCCOc1cc(C(=O)N[C@@H](Cc2ccccc2)P(=O)(O)CC(C)C(=O)Nc2ccccc2)cc(N2CCCC2=O)c1 (stereo partly drawn) [Compound I-5, {(R)-1-[3-(2-oxo-pyrrolidin-1-yl)-5-propoxy-benzoylamino]-2-phenyl-ethyl}-(2-phenylcarbamoyl-propyl)-phosphinic acid]
200 | CCCN(CCC)C(=O)c1cccc(C(=O)NC(Cc2ccccc2)P(=O)(O)CC(C(=O)Nc2ccc(C)cc2)C(C)C)c1 (centres unmarked) [Compound I-14, [1-(3-dipropylcarbamoyl-benzoylamino)-2-phenyl-ethyl]-(3-methyl-2-p-tolylcarbamoyl-butyl)-phosphinic acid]
